Reference: patent US20030212100A1, “Quinoline derivatives and medicinal use thereof” (priority 2000, published 2003)
Counter-ions that a name gives are not always drawn.

Tests used:
human PPARα receptor = biological target: T1, human PPARα receptor (Homo sapiens, UniProt Q07869); assay: Luciferase reporter assay of PPARα agonist activity (Gal4-PPARα chimera receptor in CV-1 cells); format: cell-based; settings: for Emax at 0.1 µM: CV-1, 0.1 μM compound; for Emax at 0.1 µM / Emax at 1 µM / Emax at 10 µM: luciferase activity with 10 μM Wy-14,643 taken as 100, read-out: PPARα agonist activity, relative activity; for Emax at 1 µM: CV-1, 1 μM compound; for Emax at 10 µM: CV-1, 10 μM compound; for PPARα agonist activity, relative activity: luciferase activity with 10 μM Wy-14,643 taken as 100
T1 construct: expressed in transfected cells; host or cells: CV-1 cells (pSG5-based expression vector)
T1 sequence (Q07869 167-468): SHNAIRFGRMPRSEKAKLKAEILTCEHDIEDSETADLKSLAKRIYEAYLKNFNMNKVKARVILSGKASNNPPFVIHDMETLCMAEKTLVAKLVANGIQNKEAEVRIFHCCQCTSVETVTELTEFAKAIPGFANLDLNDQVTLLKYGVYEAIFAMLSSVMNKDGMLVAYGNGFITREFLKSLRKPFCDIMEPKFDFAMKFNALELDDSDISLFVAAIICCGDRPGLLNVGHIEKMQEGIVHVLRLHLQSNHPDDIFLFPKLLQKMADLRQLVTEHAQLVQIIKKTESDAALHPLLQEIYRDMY
Experimental: (§1) Measurement of PPARα Agonist Activity and PPARγ Agonist Activity
(§2) 1. Materials for Assay of Luciferase Using Human PPARα and PPARγ Receptors
(§3) The entire procedure was carried out according to the fundamental methods of genetic engineering and the ordinary method in the yeast one-hybrid or two-hybrid system was applied.
(§4) PGL2-UAS5-TK-luc was prepared as a reporter plasmid carrying a response sequence of Gal4 protein as a basic transcription factor of yeast, an enhancer sequence with five repeat part of UAS, a luciferase gene (luc) under the control of timidine kinase (TK) promoter. Specifically, a DNA fragment encoding a TK promoter (−105/+51) on the downstream side of an enhancer sequence comprising two time repeat of UAS was amplified by PCR using pRL-TK carrying a TK promoter (Promega, Trade name: Catalogue No. E2241) as the template and the primers: […]
(§5) After the fragment was cleaved with XhoI-Hind III, pGL2-UAS2-TK-luc was obtained by inserting the resultant fragment into the XhoI-Hind III site located on the upstream side of a luciferase structural gene on pGL2-Basic vector (Promega, Trade name: Catalogue No. E1641).
(§6) After cleavage of a synthetic DNA as an enhancer sequence comprising three time repeat of Gal4 response sequence (SEQ ID NO: 3): 5′-ATTGGTAC([…])×3 AGATCTCGAC) using KpnI and BgIII was carried out, pGL2-UAS5-TK-luc was prepared by inserting the resulting fragment into the KpnI-BgIIIb site of pGL2-UAS2-TK-luc.
(§7) A vector for expression of a chimera receptor protein, in which a ligand binding region of an internuclear receptor human PPARα or PPARγ receptor was fused with the carboxyl terminal of a DNA binding region of yeast Ga14 protein, was prepared as follows:
(§8) The structural gene of pSG5 (STRATAGENE, Trade Name: Catalogue No. 216201) as the basic expression vector was changed for the chimera receptor except that the promoter-enhancer region was maintained as it was.
(§9) The DNA encoding the ligand binding region of the human PPARα or PPARγ receptor was fused on the downstream side of the DNA encoding the DNA binding region and the amino acid sequence from 1 to 147 positions of Ga14 protein so that their reading frames were fitted and the resulting fused DNA was inserted into pSG5 (trade name) on the down stream side of the promoter-enhancer region. In this step, the DNA sequence was arranged so that a signal for transfer into the nucleus (Ala Pro Lys Lys Lys Arg Lys Val Gly (SEQ ID: No: 4) derived from SV-40T antigen was located on the amino terminal of the ligand binding region of PPARα or PPARγ receptor in order to localize the chimera receptor in the nucleus.
(§10) Based on comparison of the human PPAR receptors described in R. Mukherjee et al., [see J. Steroid Biochem. Molec. Biol., Vol. 51, p157 (1994)] and M. E. Green et al., [see Gene Expression, Vol. 4, p281 (1995))], as the structural gene part used for the ligand binding region PPARα or PPARγ, the human PPARα ligand binding region: Ser167-Tyr468; and the PPARγ ligand binding region: Ser176-Tyr478 were used, which had the same sequences corresponding to Ser204-Tyr506 for human PPARγ1 receptor and human PPARγ2, respectively.
(§11) In order to monitor influence against the basic transcription, an expression vector was prepared which carried a DNA encoding only the DNA binding region and the amino acid sequence from 1 to 147 position of Ga14 protein defective in its PPAR ligand binding region and a signal for transfer into the nucleus of SV-40T-antigen.
(§12) 2. Assay of Luciferase Using Human PPARα or PPARγ Receptor
(§13) CV-1 cells used as a host cell were cultivated according to an ordinary method. Specifically, a fetal bovine serum (Intergent, Catalogue No. 1020-90) was added to a Dulbecco's modified Eagle's medium (DMEM) so that the final concentration became 10%. Further, penicillin G (50 U/ml) and streptomycin sulfate (50 μg/ml) were added. Cultivation was conducted in the resulting medium in a 5% carbon dioxide gas at 37° C. […]

human PPARγ receptor = biological target: T2, human PPARγ receptor (Homo sapiens, UniProt P37231); assay: Luciferase reporter assay of PPARγ agonist activity (Gal4-PPARγ chimera receptor in CV-1 cells); format: cell-based; settings: for Emax at 0.1 µM: CV-1, 0.1 μM compound; for Emax at 0.1 µM / Emax at 1 µM / Emax at 10 µM: luciferase activity with 1 μM Pioglitazone taken as 100, read-out: PPAR γ agonist activity, relative activity; for Emax at 1 µM: CV-1, 1 μM compound; for Emax at 10 µM: CV-1, 10 μM compound; for PPAR γ agonist activity, relative activity: luciferase activity with 1 μM Pioglitazone taken as 100
T2 construct: corresponding to Ser204-Tyr506 for human PPARγ1 receptor and human PPARγ2; expressed in transfected cells; host or cells: CV-1 cells (pSG5-based expression vector)
T2 sequence (P37231 204-505 limits assumed): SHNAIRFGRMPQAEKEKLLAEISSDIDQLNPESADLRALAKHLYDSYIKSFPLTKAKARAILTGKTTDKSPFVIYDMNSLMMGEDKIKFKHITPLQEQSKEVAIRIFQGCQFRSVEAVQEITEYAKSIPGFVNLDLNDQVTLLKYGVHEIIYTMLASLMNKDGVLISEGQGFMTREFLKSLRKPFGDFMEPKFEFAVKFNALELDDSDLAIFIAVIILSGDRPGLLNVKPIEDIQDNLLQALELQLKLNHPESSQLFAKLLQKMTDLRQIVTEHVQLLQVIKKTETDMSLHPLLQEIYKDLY
Experimental: as §1, §2, §3, §4, §5, §6, §7, §8, §9, §10, §11, §12, §13

CCCCCCCCOc1c(COc2ccc(CC(OCC)C(=O)O)cc2)cnc2ccc(OC)cc12 (stereo not drawn) [Example 7 (63), 2-ethoxy-3-{[4-(4-octyloxy-6-methoxyquinoline-3-yl)methyloxy]phenyl}propanoic acid]
Emax at 0.1 µM (human PPARα receptor): 0.4% | Emax at 1 µM (human PPARα receptor): 4.5% | Emax at 10 µM (human PPARα receptor): 64.4% | Emax at 0.1 µM (human PPARγ receptor): 13.5% | Emax at 1 µM (human PPARγ receptor): 63.3% | Emax at 10 µM (human PPARγ receptor): 114%

COc1ccc2ncc(COc3ccc(CC(Sc4ccccc4)C(=O)O)cc3)c(OC(C)C)c2c1 (stereo not drawn) [Example 19 (108), 3-{[4-(4-isopropoxy-6-methoxyquinoline-3-yl)methyloxy]phenyl}-2-phenylthiopropanoic acid]
Emax at 0.1 µM (human PPARα receptor): 0.3% | Emax at 1 µM (human PPARα receptor): 0.3% | Emax at 10 µM (human PPARα receptor): 0.6% | Emax at 0.1 µM (human PPARγ receptor): 25.2% | Emax at 1 µM (human PPARγ receptor): 83.5% | Emax at 10 µM (human PPARγ receptor): 97.9%

CNC(=O)/C(=C/c1ccc(OCc2cnc3ccc(OC)cc3c2OC(C)C)cc1)C(C)=O [Example 25 (144), 2-{[4-(4-isopropoxy-6-methoxyquinoline-3-yl)methyloxy]phenylmethylene}-3-oxobutanoic acid N-methylamide hydrochloride]
Emax at 0.1 µM (human PPARγ receptor): 0.7% | Emax at 1 µM (human PPARγ receptor): 1.9% | Emax at 10 µM (human PPARγ receptor): 6.2%

CCOC(Cc1ccc(OCc2cnc3ccc(CC)cc3c2OC(C)C)cc1)C(=O)O (stereo not drawn) [Example 6 (67), 2-ethoxy-3-{[4-(4-isopropoxy-6-ethylquinoline-3-yl)methyloxy]phenyl}propanoic acid]
Emax at 0.1 µM (human PPARα receptor): 5.7% | Emax at 1 µM (human PPARα receptor): 47.1% | Emax at 10 µM (human PPARα receptor): 74% | Emax at 0.1 µM (human PPARγ receptor): 122% | Emax at 1 µM (human PPARγ receptor): 140% | Emax at 10 µM (human PPARγ receptor): 125%

CCOC(Cc1ccc(OCc2ccc3ncccc3c2)cc1)C(=O)O (stereo not drawn) [Example 10 (32), 2-ethoxy-3-{[4-(quinoline-6-yl)methyloxy]phenyl}propanoic acid]
PPARα agonist activity, relative activity (human PPARα receptor; 0.1 μM compound): 0.2 | PPARα agonist activity, relative activity (human PPARα receptor; 1 μM compound): 0.3 | PPARα agonist activity, relative activity (human PPARα receptor; 10 μM compound): 50.1 | PPAR γ agonist activity, relative activity (human PPARγ receptor; 0.1 μM compound): 1.0 | PPAR γ agonist activity, relative activity (human PPARγ receptor; 1 μM compound): 20.8 | PPAR γ agonist activity, relative activity (human PPARγ receptor; 10 μM compound): 123.9

CCOC(=O)C(Cc1ccc(OC)c(OCc2cnc3ccc(OC)cc3c2OC(C)C)c1)C(=O)OCC [Example 28 (129), diethyl{[3-(4-isopropoxy-6-methoxyquinoline-3-yl)methyloxy]-4-methoxyphenyl}methylmalonate hydrochloride]
Emax at 0.1 µM (human PPARγ receptor): 1.3% | Emax at 1 µM (human PPARγ receptor): 2.1% | Emax at 10 µM (human PPARγ receptor): 14.7%

COC(=O)C(Cc1ccc(OCc2cnc3ccc(OC)cc3c2OC(C)C)cc1)C(=O)OC [Example 22 (120), dimethyl{[4-(4-isopropoxy-6-methoxyquinoline-3-yl)methyloxy]phenyl}methylmalonate hydrochloride]
Emax at 0.1 µM (human PPARγ receptor): 3.5% | Emax at 1 µM (human PPARγ receptor): 62.3% | Emax at 10 µM (human PPARγ receptor): 108%

CCOC(Cc1ccc(OCc2cnc3c(Cl)cccc3c2OC(C)C)cc1)C(=O)O (stereo not drawn) [Example 13 (76), 3-{[4-(8-chloro-4-isopropoxyquinoline-3-yl)methyloxy]phenyl}-2-ethoxypropanoic acid]
Emax at 0.1 µM (human PPARα receptor): 0.3% | Emax at 1 µM (human PPARα receptor): 0.9% | Emax at 10 µM (human PPARα receptor): 41.1% | Emax at 0.1 µM (human PPARγ receptor): 104% | Emax at 1 µM (human PPARγ receptor): 140% | Emax at 10 µM (human PPARγ receptor): 130%

CCOC(Cc1ccc(OCc2cnc3c(F)cccc3c2OC(C)C)cc1)C(=O)O (stereo not drawn) [Example 15 (82), 2-ethoxy-3-{[4-(8-fluoro-4-isopropoxyquinoline-3-yl)methyloxy]phenyl}propanoic acid]
Emax at 0.1 µM (human PPARα receptor): 0.3% | Emax at 1 µM (human PPARα receptor): 0.3% | Emax at 10 µM (human PPARα receptor): 5% | Emax at 0.1 µM (human PPARγ receptor): 52.3% | Emax at 1 µM (human PPARγ receptor): 133% | Emax at 10 µM (human PPARγ receptor): 125%

CCOC(Cc1ccc(OCc2cccc3cccnc23)cc1)C(=O)O (stereo not drawn) [Example 16 (32), 2-ethoxy-3-{[4-(quinoline-8-yl)methyloxy]phenyl}propanoic acid]
Emax at 0.1 µM (human PPARα receptor): 0.3% | Emax at 1 µM (human PPARα receptor): 0.4% | Emax at 10 µM (human PPARα receptor): 45.2% | Emax at 0.1 µM (human PPARγ receptor): 1.6% | Emax at 1 µM (human PPARγ receptor): 71.8% | Emax at 10 µM (human PPARγ receptor): 127%

CCOC(Cc1cccc(OCc2cnc3ccc(OC)cc3c2OC(C)C)c1)C(=O)O (stereo not drawn) [Example 20 (114), 2-ethoxy-3-{[3-(4-isopropoxy-6-methoxyquinoline-3-yl)methyloxy]phenyl}propanoic acid]
Emax at 0.1 µM (human PPARγ receptor): 9.3% | Emax at 1 µM (human PPARγ receptor): 91% | Emax at 10 µM (human PPARγ receptor): 110%

CCOC(=O)C(Cc1cccc(OCc2cnc3ccc(OC)cc3c2OC(C)C)c1)C(=O)OCC [Example 27 (128), diethyl{[3-(4-isopropoxy-6-methoxyquinoline-3-yl)methyloxy]phenyl}methylmalonate hydrochloride]
Emax at 0.1 µM (human PPARγ receptor): 1.2% | Emax at 1 µM (human PPARγ receptor): 2.1% | Emax at 10 µM (human PPARγ receptor): 42.5%

CCOC(Cc1ccc(OC)c(OCc2cnc3ccc(OC)cc3c2OC(C)C)c1)C(=O)O (stereo not drawn) [Example 21 (118), 2-ethoxy-3-{[3-(4-isopropoxy-6-methoxyquinoline-3-yl)methyloxy]-4-methoxyphenyl}propanoic acid]
Emax at 0.1 µM (human PPARγ receptor): 1.4% | Emax at 1 µM (human PPARγ receptor): 1.9% | Emax at 10 µM (human PPARγ receptor): 22.4%

CCC(=O)C(Cc1ccc(OCc2cnc3ccc(OC)cc3c2OC(C)C)cc1)C(=O)OC (stereo not drawn) [Example 23 (137), methyl 2-{[4-(4-isopropoxy-6-methoxyquinoline-3-yl)methyloxy]phenylmethyl}-3-oxopentanoate hydrochloride]
Emax at 0.1 µM (human PPARγ receptor): 2.8% | Emax at 1 µM (human PPARγ receptor): 30.5% | Emax at 10 µM (human PPARγ receptor): 63.1%
